pIC50: −log10 of the molar value. Where two headings read alike, the source gives them in different places. Each block holds one compound with its values, some of them ahead of it.
Experiments:
[1] = tested on: cytochrome P450; conditions: dose far in excess of the amount in grapefruit juice; cited from earlier work
[2] = tested on: P450 1A2; conditions: cited from earlier work
[3] = tested on: P450 1A1; conditions: cited from earlier work
[4] = tested on: oxidative metabolism; conditions: in vitro; cited from earlier work
[5] = tested on: CYP3A; conditions: cited from earlier work
[6] = tested on: CYP3A4; conditions: human, in vivo; cited from earlier work
[7] = tested on: P450 2B4; conditions: cited from earlier work
[8] = tested on: P450 2B1; conditions: cited from earlier work
[9] = tested on: P450; conditions: oral erythromycin; oral and IV midazolam; cited from earlier work
[10] = molecular target: T1, P450 3A4 (Homo sapiens, UniProt P08684); experiment: Inactivation of P450 3A4 in human liver microsomes (testosterone 6β-hydroxylation, P450 content); format: biochemical; design: The human liver microsomes was prepared by differential centrifugation; from tissue; host or cells: human liver (microsomes); conditions: for P450 Content / Testosterone 6-β hydroxylation: 400 μM DHB, 15 min, 37° C., pH 7.5
Procedure: Inactivation of P450 3A4 in human liver microsomes and E. coli membranes. […] At end of the incubation, 100 μl of the incubation mixture was taken for determination of testosterone 6β-hydroxylation activity. The other aliquot was used for P450 determination by the method of Omura and Sato. Ducharme, M. P. et al., Clin. Pharmacol. Ther. 57:485-491 (1995). The human liver microsomes was prepared by differential centrifugation.
Determination of testosterone 6β-hydroxylation. The human liver microsomes or the P450 3A4 and reductase containing E. coli membrane fractions ([…] of P450) were incubated with 200 μM testosterone in 1 ml of 50 mM Hepes buffer (pH 7.5). The reactions were initiated by the addition of 1 mM NADPH and terminated by 1 ml of ethyl acetate in ice. The 6β-hydoxytestosterone product was determined by HPLC on a C18 column (Microsorb-MV, 5 μm, 4.6×15 cm) eluted with a mobile phase of 65% of methanol at flow rate of 1 ml/min and the eluate was monitored by UV detection at 254 nm.
Target sequence in this assay (P08684 whole entry): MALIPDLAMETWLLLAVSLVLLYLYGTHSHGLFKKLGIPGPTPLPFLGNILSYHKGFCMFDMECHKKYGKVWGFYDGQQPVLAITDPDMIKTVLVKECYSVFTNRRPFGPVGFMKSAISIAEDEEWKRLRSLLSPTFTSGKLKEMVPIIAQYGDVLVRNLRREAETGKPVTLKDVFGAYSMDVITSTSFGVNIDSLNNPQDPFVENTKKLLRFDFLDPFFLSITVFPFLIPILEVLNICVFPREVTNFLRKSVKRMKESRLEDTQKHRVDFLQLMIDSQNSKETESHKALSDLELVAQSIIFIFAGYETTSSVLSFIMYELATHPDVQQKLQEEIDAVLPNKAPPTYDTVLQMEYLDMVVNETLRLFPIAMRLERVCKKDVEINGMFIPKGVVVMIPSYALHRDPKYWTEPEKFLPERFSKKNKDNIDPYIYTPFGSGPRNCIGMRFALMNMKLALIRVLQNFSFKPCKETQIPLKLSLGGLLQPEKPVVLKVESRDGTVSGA

[11] = Solubility in ethanol versus water; format: physicochemical; conditions: ethanol vs water
[12] = molecular target: human CYP3A4 (Homo sapiens, UniProt P08684); experiment: 6β-hydroxytestosterone formation in human lymphoblast microsomes containing CYP3A4 expressed from transfected human CYP3A4 cDNA
Procedure: (§1) Measurement of CYP3A Activity. CYP3A activity was assessed by measuring the formation rate of 6β-hydroxytestosterone from testosterone in dexamethasone-induced liver microsomes from male Sprague-Dawley rats (Human Biologics Inc., Phoenix, Az.) using incubation conditions identical to those described previously. Edwards, D. J. et al., Life Sci. 59:1025-1030 (1996). […] Siess, M.-H. et al., Toxicol. Appl. Pharmacol. 130:73-78 (1995). In addition, 6β-hydroxytestosterone formation was also measured in human lymphoblast microsomes containing CYP3A4 expressed from transfected human CYP3A4 cDNA (Gentest Corporation, Woburn, Mass.).
(§2) HPLC Procedures and instrumentation. […] Methylene chloride (4 ml) was added and samples were vortex mixed for 2 minutes. After centrifugation, the organic phase was evaporated, the residue re-constituted in 200 μl of mobile phase (55% methanol in water) and injected (100 μl) onto the column (Partisil 5 ODS-3 25 cm C18 column, Whatman Inc., Clifton, N.J.). A mobile phase flow rate of 1.2 ml/minute was used with detection of analytes at 254 nm (Waters 490E multiwavelength UV detector, Waters Corp., Milford, Mass.).
Metabolic Experiments. Grapefruit juice (1 ml) was extracted into methylene chloride and, following evaporation of the organic phase, the residue was reconstituted in mobile phase and chromatographed by HPLC. […]

[13] = tested on: CYP3A; experiment: CYP3A activity: 6β-hydroxytestosterone formation from testosterone in rat liver microsomes
Procedure: as §1, §2
Metabolic Experiments. Grapefruit juice (1 ml) was extracted into methylene chloride and, following evaporation of the organic phase, the residue was reconstituted in mobile phase and chromatographed by HPLC. Fractions of the HPLC eluent were collected at 3-4 minute intervals following injection, evaporated and the effect of the residue on 6β-hydroxytestosterone formation examined. […] Edwards, D. J. et al., Life Sci. 59:1025-1030 (1996). The effect of these solutions on 6β-hydroxytestosterone formation was compared using analysis of variance (SYSTAT for Windows™, Version 5.0) with the Tukey test for post-hoc analysis (p<0.05 for significance).

[14] = molecular target: T1, P450 3A4; conditions: for inhibition: e. coli membranes
Target sequence in this assay (P08684 whole entry): as above
Target sequence in this assay (P16435 whole entry partner): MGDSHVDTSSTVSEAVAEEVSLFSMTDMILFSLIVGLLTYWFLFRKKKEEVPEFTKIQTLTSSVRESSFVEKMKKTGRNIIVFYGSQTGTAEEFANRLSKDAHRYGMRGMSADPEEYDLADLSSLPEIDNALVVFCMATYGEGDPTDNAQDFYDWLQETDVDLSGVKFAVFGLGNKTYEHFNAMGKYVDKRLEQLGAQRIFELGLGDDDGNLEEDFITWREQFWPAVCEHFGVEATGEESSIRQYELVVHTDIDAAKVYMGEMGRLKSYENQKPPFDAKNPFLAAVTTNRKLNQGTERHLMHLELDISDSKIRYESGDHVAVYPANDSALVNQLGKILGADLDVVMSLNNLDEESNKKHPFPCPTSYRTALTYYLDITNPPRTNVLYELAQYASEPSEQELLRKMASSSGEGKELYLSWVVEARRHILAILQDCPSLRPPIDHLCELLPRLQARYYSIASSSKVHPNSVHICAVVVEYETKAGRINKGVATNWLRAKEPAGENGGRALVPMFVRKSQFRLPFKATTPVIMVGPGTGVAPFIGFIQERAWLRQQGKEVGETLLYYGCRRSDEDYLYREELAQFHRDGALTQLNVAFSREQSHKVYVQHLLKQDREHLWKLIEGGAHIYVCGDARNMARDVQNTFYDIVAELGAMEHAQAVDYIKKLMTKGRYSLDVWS

[15] = tested on: CYP3A4 (3A4); experiment: Inhibition of CYP3A4 in a purified enzyme preparation; format: biochemical
[16] = tested on: cytochrome P450; conditions: cited from earlier work
[17] = tested on: CYP3A; conditions: co-administration; cited from earlier work
[18] = tested on: P450; conditions: in vivo, treated rats; cited from earlier work
[19] = preincubation with DHB and NADPH

Sequence of human CYP3A4 (P08684 whole entry): as the sequence (P08684 whole entry) above

Compound: O=c1c(O)c(-c2ccc(O)c(O)c2)oc2cc(O)cc(O)c12 [quercetin]
effect on cytochrome P450 activity [1]: no effect

Compound: COc1c2ccoc2cc2cc(C)oc(=O)c12 [coriandrin]
binding to apoP450 [2]: covalent binding | binding to apoP450 [3]: covalent binding

Compound: C[C@@H]1O[C@@H](O[C@H]2[C@H](Oc3cc(O)c4c(c3)O[C@H](c3ccc(O)cc3)CC4=O)O[C@H](CO)[C@@H](O)[C@@H]2O)[C@H](O)[C@H](O)[C@H]1O [naringin]
inhibition of oxidative metabolism [4]: weak inhibitor | inhibition of CYP3A / contribution to it [5]: do not significantly contribute | effect on disposition of substrates for CYP3A4 [6]: did not significantly affect

Compound: C#Cc1cc2ccccc2c2ccccc12 [9-ethynylphenanthrene]
mechanism based inactivation [7]: mechanism based inactivation | mechanism based inactivation [8]: mechanism based inactivation

Compound: C#Cc1ccc2c(ccc3ccccc32)c1 [2-ethynylphenanthrene]
mechanism based inactivation [7]: mechanism based inactivation | mechanism based inactivation [8]: mechanism based inactivation

Compound: CC[C@H]1OC(=O)[C@H](C)[C@@H](O[C@H]2C[C@@](C)(OC)[C@@H](O)[C@H](C)O2)[C@H](C)[C@@H](O[C@@H]2O[C@H](C)C[C@H](N(C)C)[C@H]2O)[C@](C)(O)C[C@@H](C)C(=O)[C@H](C)[C@@H](O)[C@]1(C)O [erythromycin]
metabolism of midazolam [9]: impaired the metabolism of midazolam after both oral and IV administration

P450 Content ([10]; +NADPH/+DHB): 0.87 nmol/mL | Testosterone 6-β hydroxylation ([10]; +NADPH/+DHB): 0.18 nmol/nmol P450/min | P450 Content ([10]; -NADPH/+DHB): 0.93 nmol/mL | Testosterone 6-β hydroxylation ([10]; -NADPH/+DHB): 0.37 nmol/nmol P450/min | P450 3A4 activity inhibition, in words ([10]; human liver microsomes): significantly inhibited | P450 retained (reduced-CO spectrum) [10, 19]: about 90% | loss of P450 3A4 catalytic activity [10, 19]: 70% | inhibition at 20 µM ([10]; without preincubation, final concentration of 20 μM, read-out: testosterone 6β-hydroxylase activity inhibited (competitive inhibition)): ~30% | solubility, in words [11]: much more soluble in ethanol than water | pIC50 [12]: 5.70 to 6.00 | pIC50 ([13]; microsomes): 4.60 | inhibition [14]: ~45% | inhibition ([14]; 15 min): 90%
Compound: C/C(=C\COc1c2ccoc2cc2oc(=O)ccc12)CCC(O)C(C)(C)O (centres unmarked) [6',7'-dihydroxybergamottin]
effect of GSH on inactivation ([10]; 2 mM GSH in the incubation system): not inhibited by the presence of 2 mM GSH | inhibition of 6β-hydroxytestosterone formation activity, mode ([10]; FIG. 4, human liver microsomes): time and concentration dependent as well as requiring catalytic turnover | inactivation of 3A4, in words ([10]; human liver microsomes): potent NADPH- and time dependent inactivator of 3A4 | inhibition, concentration dependence and need of pre-incubation [13]: inhibition is concentration-dependent and requires no pre-incubation with microsomes | inactivation of 3A4, in words ([14]; human 3A4 expressed in E. coli membrane): potent NADPH- and time dependent inactivator of 3A4 | inactivation of 3A4, in words [15]: potent NADPH- and time dependent inactivator of 3A4

Compound: chlorophyllin
inhibition of cytochrome P450 activity [16]: non-specific inhibition of cytochrome P450 activity

Compound: CC(=O)N1CCN(c2ccc(OCC3COC(Cn4ccnc4)(c4ccc(Cl)cc4Cl)O3)cc2)CC1 (centres unmarked) [ketoconazole, reference compound]
pIC50 ([13]; read-out: concentration required to inhibit 6β-hydroxytestosterone formation by 50% (IC50), rat liver microsomes (dexamethasone-induced)): […] | bioavailability of cyclosporine [17]: increases bioavailability

Compound: COc1c2occc2cc2ccc(=O)oc12 [8-methoxyporalen]
heme fragment, MI complex and heme adduct formation [18]: no heme fragment, MI complex and heme adduct formation

Compound: O=C1C[C@@H](c2ccc(O)cc2)Oc2cc(O)cc(O)c21 [naringenin]
inhibition of CYP3A / contribution to it [5]: do not significantly contribute

— patent publication US6160006A (priority 1997, dated 2000)
